Several values for one entry are separate records, joined by “and”; a condition that tells them apart may be missing. Equal values may be shown once. Read-outs that look alike come from different tables or passages of the source.
Tests used:
[1] = tested on: GM1 production in Jurkat cells; assay: cells; assay type: cell-based; settings: Homo sapiens, Jurkat, 72 h
[2] = Evaluation of blood-brain barrier (BBB) permeability through oral administration; assay type: in vivo, mice; settings: mouse, in vivo
Description: The blood-brain barrier (BBB) permeability was evaluated in mice, with respect to the compounds according to the present invention and the control (ibiglustat). Each compound of the present invention and the control were suspended in 0.5% methyl cellulose containing 0.2% Tween 80 and then orally administered to mice at a dose of 10 or 30 mg/10 ml/kg. After the whole blood was collected from the heart of each mouse at the time of 4 hours after the administration, it was placed in a lithium heparin tube and immediately centrifuged to obtain the plasma. After the exsanguination was carried out through abdominal vena cava incision, the forebrain was taken by dissection of the head. Both of the forebrain and the plasma were stored in a −80° C. freezer until the analysis of drug concentrations therein. For the analysis of drug concentrations therein, the forebrain was immersed in distilled water and then homogenized with a homogenizer to obtain a homogenate. Each plasma and homogenate was treated with acetonitrile to precipitate proteins, vortexed for 15 seconds, and then centrifuged (12700 rpm, 10 min, 4° C.). The obtained supernatant was diluted with an 80% aqueous solution of acetonitrile containing 0.1% formic acid and then analyzed with an LC-MS/MS instrument. LC-MS/MS analysis was carried out with a reversed-phase column, using distilled water containing 0.1% formic acid and acetonitrile as mobile phases. Each eluted material was detected through a mass spectrometer to calculate the drug concentrations thereof. The brain-plasma drug ratio (B/P ratio) was calculated from the drug concentrations in each tissue to evaluate the blood-brain barrier (BBB) permeability.

[3] = mice, oral, dose 30 mg/kg, 4 hr, read-out: Mean brain-plasma drug ratio at 4 hr
[4] = mice, oral, dose 30 mg/kg, 4 hr, read-out: Mean drug concentrations in brain tissue at 4 hr
[5] = mice, oral, dose 30 mg/kg, 4 hr, read-out: Mean drug concentrations in plasma at 4 hr

SMILES	IC50 [1]	Kp at 4 h [2, 3]	concentration at 4 h [2, 4]	concentration at 4 h [2, 5]	Kp at 4 h ([2]; po, 30 mg/kg)	concentration at 4 h ([2]; po, 30 mg/kg)
CCCOc1ccc(-c2ccc3c(c2)CC(C)(C)[C@H]3NC(=O)O[C@@H]2CN3CCC2CC3)cc1Cl [Example 16, (S)-quinuclidin-3-yl((R)-5-(3-chloro-4-propoxyphenyl)-2,2-dimethyl-2,3-dihydro-1H-inden-1-yl)carbamate]	0.0287 µM	8.02	1280 ng/g	160 ng/mL	–	–
CCOc1ccc(-c2cc3c(cc2F)[C@H](NC(=O)O[C@@H]2CN4CCC2CC4)C(C)(C)C3)cc1F [Example 90, (S)-quinuclidin-3-yl((R)-5-(4-ethoxy-3-fluorophenyl)-6-fluoro-2,2-dimethyl-2,3-dihydro-1H-inden-1-yl)carbamate]	0.0264 µM	7.42	6480 ng/g	874 ng/mL	–	–
CCOc1ccc(-c2ccc3c(c2)CC(C)(C)[C@H]3NC(=O)O[C@@H]2CN3CCC2CC3)cc1Cl [Example 15, (S)-quinuclidin-3-yl((R)-5-(3-chloro-4-ethoxyphenyl)-2,2-dimethyl-2,3-dihydro-1H-inden-1-yl)carbamate]	0.0405 µM	4.66	6030 ng/g	1290 ng/mL	–	–
CC(C)COc1ccc(-c2cc3c(cc2F)[C@H](NC(=O)O[C@@H]2CN4CCC2CC4)C(C)(C)C3)cc1 [Example 57, (S)-quinuclidin-3-yl((R)-6-fluoro-5-(4-isobutoxyphenyl)-2,2-dimethyl-2,3-dihydro-1H-inden-1-yl)carbamate]	0.00099 µM	20.9	1330 ng/g	63.7 ng/mL	–	–
Cc1cc(-c2cc3c(cc2F)[C@H](NC(=O)O[C@@H]2CN4CCC2CC4)C(C)(C)C3)cc(C)c1OC(C)C [Example 65, (S)-quinuclidin-3-yl((R)-6-fluoro-5-(4-isopropoxy-3,5-dimethylphenyl)-2,2-dimethyl-2,3-dihydro-1H-inden-1-yl)carbamate]	0.0088 µM	5.04	4080 ng/g	811 ng/mL	–	–
CCOc1c(C)cc(-c2ccc3c(c2)CC(C)(C)[C@H]3NC(=O)O[C@@H]2CN3CCC2CC3)cc1C [Example 22, (S)-quinuclidin-3-yl((R)-5-(4-ethoxy-3,5-dimethylphenyl)-2,2-dimethyl-2,3-dihydro-1H-inden-1-yl)carbamate]	0.0381 µM	3.37	4400 ng/g	1320 ng/mL	–	–
CC(C)c1ccc(-c2cc3c(cc2F)[C@H](NC(=O)O[C@@H]2CN4CCC2CC4)C(C)(C)C3)cc1 [Example 59, (S)-quinuclidin-3-yl((R)-6-fluoro-5-(4-isopropylphenyl)-2,2-dimethyl-2,3-dihydro-1H-inden-1-yl)carbamate]	0.0043 µM	9.7	4120 ng/g	436 ng/mL	–	–
CCCOc1c(C)cc(-c2ccc3c(c2)CC(C)(C)[C@H]3NC(=O)O[C@@H]2CN3CCC2CC3)cc1C [Example 9, (S)-quinuclidin-3-yl((R)-5-(3,5-dimethyl-4-propoxyphenyl)-2,2-dimethyl-2,3-dihydro-1H-inden-1-yl)carbamate]	0.0221 µM	6.84	2750 ng/g	403 ng/mL	–	–
CC(C)(NC(=O)O[C@@H]1CN2CCC1CC2)c1csc(-c2ccc(F)cc2)n1 [Control, Ibiglustat, reference compound]	–	–	–	–	0.501	2640 ng/mL and 1320 ng/g
CCCOc1cccc(-c2cc3c(cc2F)[C@H](NC(=O)O[C@@H]2CN4CCC2CC4)C(C)(C)C3)c1 [Example 77, (S)-quinuclidin-3-yl((R)-6-fluoro-2,2-dimethyl-5-(3-propoxyphenyl)-2,3-dihydro-1H-inden-1-yl)carbamate]	0.0237 µM	–	–	–	–	–
CCCc1ccc(-c2ccc3c(c2)CC(C)(C)[C@H]3NC(=O)O[C@@H]2CN3CCC2CC3)cc1 [Example 4, (S)-quinuclidin-3-yl((R)-2,2-dimethyl-5-(4-propylphenyl)-2,3-dihydro-1H-inden-1-yl)carbamate]	0.00374 µM	–	–	–	–	–

— patent US20240262819A1, “NOVEL COMPOUNDS HAVING INHIBITORY ACTIVITY AGAINST GLUCOSYLCERAMIDE SYNTHASE OR PHARMACEUTICALLY ACCEPTABLE SALT THEREOF, PROCESSES FOR PREPARING THE SAME, AND PHARMACEUTICAL COMPOSITIONS COMPRISING THE SAME” (YUHAN CORPORATION, priority 2021, published 2024)
